Test: First-in-Human (FIH) Phase 1 study comparing QW and QD regimens
Assay type: in vivo
Conditions: QW preferred to QD
Description: Both QW and QD regimens were evaluated in the First-in-Human (FIH) Phase 1 study. […] The observed data in indicate that having an uninterrupted coverage over IC90 for 1-2 days can improve cancer cell killing and maintaining Ctrough below IC50 can help normal cell recovery and can improve tolerability.

Cc1cnc(NC2CCOCC2)nc1-n1cnc(C(=O)N[C@H](CN)c2cc(F)cc(Cl)c2)c1 [Compound 1, (S)—N-(2-amino-1-(3-chloro-5-fluorophenyl)ethyl)-1-(5-methyl-2-((tetrahydro-2H-pyran-4-yl)amino)pyrimidin-4-yl)-1H-imidazole-4-carboxamide]
Efficacy, QW regimen compared to QD regimen: better efficacy | Skin toxicities, QW regimen compared to QD regimen: less frequent skin toxicities
